From ChEMBL document CHEMBL4715760, “Balancing potency, metabolic stability and permeability in pyrrolopyrimidine-based EGFR inhibitors” (Eur J Med Chem, 2016)
In brackets after ≈: the same amount, converted by molar mass.

Columns and labels:
[1] = system: A-431; assay: Antiproliferative activity against human A431 cells; format: functional, cell-based
[2] = biological target: T1, Epidermal growth factor receptor (Homo sapiens, UniProt P00533); assay: Inhibition of human EGFR using poly[Glu:Tyr] (4:1) as substrate in presence of [gamma33P]ATP by radiometric HotSpot assay
T1 sequence (P00533 whole entry): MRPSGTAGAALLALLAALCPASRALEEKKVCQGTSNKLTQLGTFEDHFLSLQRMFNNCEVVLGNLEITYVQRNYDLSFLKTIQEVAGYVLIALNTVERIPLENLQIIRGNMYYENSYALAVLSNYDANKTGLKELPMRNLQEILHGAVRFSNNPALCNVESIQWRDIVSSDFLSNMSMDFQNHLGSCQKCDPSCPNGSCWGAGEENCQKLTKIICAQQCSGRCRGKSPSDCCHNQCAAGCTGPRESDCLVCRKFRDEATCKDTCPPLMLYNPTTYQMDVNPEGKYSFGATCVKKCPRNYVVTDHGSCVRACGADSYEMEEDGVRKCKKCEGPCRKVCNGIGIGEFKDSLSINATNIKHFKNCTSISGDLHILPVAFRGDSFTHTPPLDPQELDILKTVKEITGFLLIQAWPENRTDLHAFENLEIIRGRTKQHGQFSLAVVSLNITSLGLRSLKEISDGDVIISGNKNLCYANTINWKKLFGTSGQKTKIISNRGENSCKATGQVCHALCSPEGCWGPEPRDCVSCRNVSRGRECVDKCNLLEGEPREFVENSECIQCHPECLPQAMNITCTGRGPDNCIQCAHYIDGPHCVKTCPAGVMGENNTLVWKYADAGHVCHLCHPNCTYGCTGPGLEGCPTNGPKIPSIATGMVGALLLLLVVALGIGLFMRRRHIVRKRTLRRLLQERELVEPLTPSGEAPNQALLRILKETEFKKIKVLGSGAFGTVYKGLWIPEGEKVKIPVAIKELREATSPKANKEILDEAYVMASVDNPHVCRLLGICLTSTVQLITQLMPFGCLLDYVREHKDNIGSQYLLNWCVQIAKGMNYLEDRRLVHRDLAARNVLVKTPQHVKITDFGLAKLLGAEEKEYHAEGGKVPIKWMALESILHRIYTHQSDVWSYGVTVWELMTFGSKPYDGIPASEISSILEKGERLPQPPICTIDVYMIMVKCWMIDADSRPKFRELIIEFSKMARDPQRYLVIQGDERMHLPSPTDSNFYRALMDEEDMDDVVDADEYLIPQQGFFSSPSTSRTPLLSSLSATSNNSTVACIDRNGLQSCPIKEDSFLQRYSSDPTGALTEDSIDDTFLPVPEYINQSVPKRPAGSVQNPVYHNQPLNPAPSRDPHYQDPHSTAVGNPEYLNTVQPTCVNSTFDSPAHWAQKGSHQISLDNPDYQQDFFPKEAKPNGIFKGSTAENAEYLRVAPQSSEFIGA

[3] = biological target: T1, Epidermal growth factor receptor; settings: dose 100.0 nM
Description: Inhibition of human EGFR at 100 nM using poly[Glu:Tyr] (4:1) as substrate in presence of [gamma33P]ATP by radiometric HotSpot assay relative to control

[4] = system: BaF3; assay: Antiproliferative activity against mouse Ba/F3 cells expressing EGFR-L858R mutant assessed as inhibition of cell growth incubated for 48 hrs by XTT assay; format: functional, cell-based; settings: BaF3, 48 h
[5] = Metabolic stability in pooled human liver microsomes assessed as Clearance at 3 uM measured up to 45 mins in presence of NADPH by LC-MS/MS analysis; format: ADME, Microsome; settings: for microsomal CLint at 3 µM: pooled liver microsomes, read-out: CLH
[6] = Metabolic stability in pooled human liver microsomes assessed as half life at 3 uM measured up to 45 mins in presence of NADPH by LC-MS/MS analysis; format: ADME, Microsome; settings: for half-life at 3 µM: pooled liver microsomes
[7] = physchem; settings: phosphate buffered saline, pH 7.4
[8] = Apparent permeability from basolateral to apical side in human Caco2 cells at 10 uM measured for 120 mins by LC-MS/MS analysis; settings: for Papp B→A at 2 h, 10 µM: Caco-2; for Papp: caco-2, 2 h, 10 µM
[9] = Apparent permeability from apical to basolateral side in human Caco2 cells at 10 uM measured for 120 mins by LC-MS/MS analysis; settings: for Papp A→B at 2 h, 10 µM: Caco-2; for Papp: caco-2, 2 h, 10 µM
[10] = Efflux ratio of apparent permeability across basolateral to apical side over apical to basolateral side in human Caco2 cells at 10 uM measured for 120 mins by LC-MS/MS analysis
[11] = Protein binding in plasma (unknown origin) assessed as unbound fraction at 5 uM by LC-MS/MS based equilibrium dialysis analysis
[12] = biological target: T1, Epidermal growth factor receptor; settings: dose 100.0 nM, time 1.0 hrs
[13] = biological target: T1, Epidermal growth factor receptor; assay: Inhibition of EGFR (unknown origin) using Tyr 04 peptide as substrate incubated for 1 hr by Z'-LYTE assay
[14] = biological target: Voltage-gated inwardly rectifying potassium channel KCNH2 (Homo sapiens, UniProt Q12809); assay: Inhibition of human ERG expressed in CHO cells at -80 mV holding potential by IonWorks patch-clamp electrophysiology assay
Voltage-gated inwardly rectifying potassium channel KCNH2, sequence (Q12809 whole entry): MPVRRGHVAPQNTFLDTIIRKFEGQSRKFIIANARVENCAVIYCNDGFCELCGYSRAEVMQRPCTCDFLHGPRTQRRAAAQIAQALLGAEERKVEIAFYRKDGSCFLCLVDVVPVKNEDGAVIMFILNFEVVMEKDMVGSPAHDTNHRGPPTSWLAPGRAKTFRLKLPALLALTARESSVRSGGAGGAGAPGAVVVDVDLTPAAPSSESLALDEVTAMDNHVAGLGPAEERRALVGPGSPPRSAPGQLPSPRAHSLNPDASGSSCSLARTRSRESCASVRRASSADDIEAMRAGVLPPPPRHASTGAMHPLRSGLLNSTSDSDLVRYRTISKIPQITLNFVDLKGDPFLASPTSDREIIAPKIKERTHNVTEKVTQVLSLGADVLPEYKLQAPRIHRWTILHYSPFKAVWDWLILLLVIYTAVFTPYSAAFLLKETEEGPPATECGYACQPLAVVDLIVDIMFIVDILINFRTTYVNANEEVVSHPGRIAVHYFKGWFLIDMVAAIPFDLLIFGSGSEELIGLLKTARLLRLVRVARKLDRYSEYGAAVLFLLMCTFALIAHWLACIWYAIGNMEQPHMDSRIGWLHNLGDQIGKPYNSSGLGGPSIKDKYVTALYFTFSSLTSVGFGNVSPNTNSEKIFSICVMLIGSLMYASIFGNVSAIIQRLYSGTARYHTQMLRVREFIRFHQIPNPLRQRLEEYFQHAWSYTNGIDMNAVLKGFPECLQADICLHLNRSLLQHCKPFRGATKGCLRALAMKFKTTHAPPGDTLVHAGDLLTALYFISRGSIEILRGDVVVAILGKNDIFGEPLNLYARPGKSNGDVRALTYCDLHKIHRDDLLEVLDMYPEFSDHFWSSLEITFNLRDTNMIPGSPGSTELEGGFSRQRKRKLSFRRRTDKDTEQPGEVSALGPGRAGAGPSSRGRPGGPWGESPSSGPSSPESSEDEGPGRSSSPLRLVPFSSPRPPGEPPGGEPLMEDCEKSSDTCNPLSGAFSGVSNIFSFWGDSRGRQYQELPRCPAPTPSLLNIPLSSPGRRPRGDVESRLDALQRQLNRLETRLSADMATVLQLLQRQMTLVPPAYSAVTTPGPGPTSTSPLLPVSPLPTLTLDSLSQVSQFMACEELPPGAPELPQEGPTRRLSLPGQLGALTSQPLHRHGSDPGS

| SMILES | IC50 [2] [nM] | inhibition [3] [%] | further results |
| --- | --- | --- | --- |
| CCOc1ccccc1-c1cc2c(N[C@H](CCO)c3ccccc3)ncnc2[nH]1 | 0.1 | 100 | IC50 [1]: 4900 nM; IC50 [4]: 99 nM |
| COC[C@@H](Nc1ncnc2[nH]c(-c3ccc(CO)cc3OC)cc12)c1ccccc1 | 0.5 | 98 |  |
| COc1cc(CNCCN2CCNCC2)ccc1-c1cc2c(N[C@H](CO)c3ccccc3)ncnc2[nH]1 | 0.1 | 98 | IC50 [1]: 6200 nM; IC50 [4]: 396 nM |
| CC(C)Oc1ccccc1-c1cc2c(N[C@H](C)c3ccccc3)ncnc2[nH]1 | 0.6 | 98 |  |
| COc1cc(NS(C)(=O)=O)ccc1-c1cc2c(N[C@H](C)c3ccccc3)ncnc2[nH]1 | 0.7 | 100 |  |
| C[C@@H](Nc1ncnc2[nH]c(-c3ccccc3OC(F)(F)F)cc12)c1ccccc1 | 4.3 | 92 |  |
| CC(=O)Nc1ccc(-c2cc3c(N[C@H](C)c4ccccc4)ncnc3[nH]2)cc1 | 0.7 | 97 |  |
| Cn1c(-c2ccccc2)cc2c(N[C@H](CO)c3ccccc3)ncnc21 | 900 | 20 |  |
| COc1cc(NC(C)=O)ccc1-c1cc2c(N[C@H](CO)c3ccccc3)ncnc2[nH]1 | 0.8 | 98 |  |
| COc1cc(CN(C)CCN(C)C)ccc1-c1cc2c(N[C@H](CO)c3ccccc3)ncnc2[nH]1 | 0.1 | 99 | IC50 [1]: > 10000 nM; IC50 [4]: 77 nM |
| COc1cc(CNCCN(C)C)ccc1-c1cc2c(N[C@H](CO)c3ccccc3)ncnc2[nH]1 | 0.3 | 100 |  |
| CS(=O)(=O)c1ccc(-c2cc3c(N[C@H](CO)c4ccccc4)ncnc3[nH]2)cc1 | 0.8 | 96 |  |
| C[C@@H](Nc1ncnc2[nH]c(-c3ccc(C(N)=O)cc3)cc12)c1ccccc1 | 0.8 | 97 |  |
| COc1cccc(OC)c1-c1cc2c(N[C@H](C)c3ccccc3)ncnc2[nH]1 | 0.6 | 97 |  |
| COc1cnccc1-c1cc2c(N[C@H](CO)c3ccccc3)ncnc2[nH]1 | 0.6 | 97 |  |
| NC(=O)Cc1cccc(-c2cc3c(N[C@H](CO)c4ccccc4)ncnc3[nH]2)c1 | 0.7 | 100 |  |
| COc1cc(C(N)=O)ccc1-c1cc2c(N[C@H](C)c3ccccc3)ncnc2[nH]1 | 0.4 | 98 |  |
| COC[C@@H](Nc1ncnc2[nH]c(-c3ccccc3OC(F)F)cc12)c1ccccc1 | 1.3 | 96 |  |
| COc1cc(NS(C)(=O)=O)ccc1-c1cc2c(N[C@H](CO)c3ccccc3)ncnc2[nH]1 | 0.3 | 100 |  |
| CN(C)CCNCc1ccc(-c2cc3c(N[C@H](CO)c4ccccc4)ncnc3[nH]2)cc1 | 0.3 | 97 |  |
| CS(=O)(=O)Nc1ccc(-c2cc3c(N[C@H](CO)c4ccccc4)ncnc3[nH]2)cc1 |  |  | microsomal CLint at 3 µM [5]: 10.2 µL/min/mg; half-life at 3 µM [6]: 2.27 h; solubility kinetic at 2 h [7]: > 100 µM; Papp B→A at 2 h, 10 µM [8]: 29.2 ×10⁻⁶ cm/s; Papp A→B at 2 h, 10 µM [9]: 0.02 ×10⁻⁶ cm/s |

| SMILES | IC50 [2] [nM] | inhibition [3] [%] | further results |
| --- | --- | --- | --- |
| C[C@@H](Nc1ncnc2[nH]c(-c3ccccc3OC(F)F)cc12)c1ccccc1 | 0.8 | 98 | microsomal CLint at 3 µM [5]: 56.2 µL/min/mg; half-life at 3 µM [6]: 0.412 h |
| COc1cc(C(N)=O)ccc1-c1cc2c(N[C@H](CO)c3ccccc3)ncnc2[nH]1 | 0.5 | 99 |  |
| C[C@@H](Nc1ncnc2[nH]c(-c3ccc(S(C)(=O)=O)cc3)cc12)c1ccccc1 | 0.4 | 97 |  |
| C[C@@H](Nc1ncnc2[nH]c(-c3ccc(S(N)(=O)=O)cc3)cc12)c1ccccc1 | 0.7 | 96 |  |
| CN(C)CCNCc1cc(-c2cc3c(N[C@H](CO)c4ccccc4)ncnc3[nH]2)ccc1F | 1.2 | 96 | CLH ([5]; microsomes, 0.75 h, 3 µM): 2.79 µL/min/mg; t1/2 ([6]; microsomes, 0.75 h, 3 µM): 1.72 h; solubility kinetic at 2 h [7]: > 100 µM; efflux ratio at 2 h, 10 µM ([10]; Caco-2): 5.9; Papp B→A at 2 h, 10 µM [8]: 9.6 ×10⁻⁶ cm/s; Papp A→B at 2 h, 10 µM [9]: 1.6 ×10⁻⁶ cm/s |
| [2H]C([2H])([2H])Oc1ccccc1-c1cc2c(N[C@H](CO)c3ccccc3)ncnc2[nH]1 | 0.4 |  |  |
| COc1cc(CNCCN2CCCCC2)ccc1-c1cc2c(N[C@H](CO)c3ccccc3)ncnc2[nH]1 | 0.1 | 99 |  |
| C[C@@H](Nc1ncnc2[nH]c(-c3ccncc3)cc12)c1ccccc1 | 0.6 | 97 |  |
| COc1cc(CNCCS(C)(=O)=O)ccc1-c1cc2c(N[C@H](CO)c3ccccc3)ncnc2[nH]1 | 0.4 | 100 |  |
| COc1cc(CNCCN(C)C)ccc1-c1cc2c(N[C@H](C)c3ccccc3)ncnc2[nH]1 | 0.1 | 99 | IC50 [1]: 5000 nM; IC50 [4]: 90 nM |
| COc1cc(CNCCN2CCOCC2)ccc1-c1cc2c(N[C@H](CO)c3ccccc3)ncnc2[nH]1 | 0.1 | 97 |  |
| C[C@@H](Nc1ncnc2[nH]c(-c3ccc(NS(C)(=O)=O)cc3)cc12)c1ccccc1 | 0.3 | 98 | microsomal CLint at 3 µM [5]: 21.2 µL/min/mg; half-life at 3 µM [6]: 1.09 h; solubility kinetic at 2 h [7]: 37.5 µM (≈ 15.3 µg/mL); Ratio ([10]; caco-2, 2 h, 10 µM): 23.7; Papp [8]: 26.9 10^-6 cm/s; Papp [9]: 0.03 10^-6 cm/s |
| OCc1ccc(-c2cc3c(N[C@H](CO)c4ccccc4)ncnc3[nH]2)cc1 |  |  | fraction unbound at 5 µM [11]: 0.11; microsomal CLint at 3 µM [5]: 5.21 µL/min/mg; inhibition [12]: 98%; half-life at 3 µM [6]: 4.43 h; IC50 [13]: 0.2 nM |
| CCOc1ccccc1-c1cc2c(N[C@H](C)c3ccccc3)ncnc2[nH]1 | 0.3 | 99 |  |
| COc1cc(CO)ccc1-c1cc2c(N[C@H](CO)c3ccccc3)ncnc2[nH]1 |  |  | fraction unbound at 5 µM [11]: 0.08; microsomal CLint at 3 µM [5]: 12.6 µL/min/mg; IC50 [14]: > 25000 nM; half-life at 3 µM [6]: 1.83 h; solubility kinetic at 2 h [7]: > 100 µM; Papp [8]: 50.84 10^-6 cm/s; Papp [9]: 2.98 10^-6 cm/s |
| OCc1cc(-c2cc3c(N[C@H](CO)c4ccccc4)ncnc3[nH]2)ccc1F | 1.6 | 96 |  |
| OC[C@@H](Nc1ncnc2[nH]c(-c3ccncc3)cc12)c1ccccc1 | 2 | 94 |  |
| OCc1ccc(-c2cc3c(N[C@H](CO)c4ccccc4)ncnc3[nH]2)cc1F | 0.6 | 97 | IC50 [1]: 5800 nM; IC50 [4]: 158 nM |
| OC[C@@H](Nc1ncnc2[nH]c(-c3cccnc3)cc12)c1ccccc1 | 2.2 | 92 |  |
| C[C@@H](Nc1ncnc2[nH]c(-c3cccc(C(N)=O)c3)cc12)c1ccccc1 | 1.4 | 95 |  |
